Measured values reported in US20250257071A9, “TRICYCLIC COMPOUND, METHOD FOR PREPARING SAME, AND USE THEREOF” (Sichuan Kelun-Biotech Biopharmaceutical Co., Ltd., priority 2021, published 2025).

Assays:
human TLR7 = human TLR7 (Homo sapiens (Human), UniProt Q9NYK1); assay: Agonistic activity of compounds on HEK-Blue hTLR7 cells (QUANTI-Blue reporter, OD620); type: cell-based; conditions: for Emax (OD620): OD620 at maximum activation effect
Description: • 1. HEK-Blue hTLR7 cells (Invivogen) were cultured in DMEM medium (Hyclone) containing 10% FBS heat-inactivated fetal bovine serum (Corning). On the day of detection, the cell state was observed under a microscope, the cells were collected and resuspended, and the cell concentration was adjusted after counting, 50 μL per well, the total amount of cells was 2×10^4, and the cells were inoculated in a 96-well plate. • 2. After the cells adhered to the wall overnight, 50 μL of the test compound at different concentrations was added into the well plate, so that the final concentrations were 100 μM, 33.3 μM, 11.11 μM, 3.70 μM, 1.23 μM, 0.41 μM, 0.14 μM, 0.05 μM, 0 μM, and the final concentration of DMSO was 1%. The compound was incubated with the cells in a 37° C., 5% CO2 incubator for 20 h. • 3. After the incubation, observation under microscope was performed to determine the maximum signal well, the states of the cells with the highest and lowest concentrations of the compound, and whether the compound will crystalize at high concentration. 10 μL of cell culture supermatant was taken and transferred to a new 96-well transparent plate, 90 μL of QUANTI-Blue (Invivogen) detection reagent was added to each well, and incubated at 37° C. for 3 h, and OD620 was read with a multifunctional microplate reader (BMG LABTECH). • 4. EC50 was calculated by fitting with Graphpad Prism software log(agonist) vs. response—Variable slope, and Emax was the (D620 at which the activation effect of the test compound reached the maximum.

human TLR8 = human TLR8 (Homo sapiens (Human), UniProt Q9NR97); assay: Agonistic activity of compounds on HEK-Blue hTLR8 cells (QUANTI-Blue reporter, OD620); type: cell-based; conditions: for Emax (OD620): OD620 at maximum activation effect
Chain of human TLR8 (Q9NR97 27-1041): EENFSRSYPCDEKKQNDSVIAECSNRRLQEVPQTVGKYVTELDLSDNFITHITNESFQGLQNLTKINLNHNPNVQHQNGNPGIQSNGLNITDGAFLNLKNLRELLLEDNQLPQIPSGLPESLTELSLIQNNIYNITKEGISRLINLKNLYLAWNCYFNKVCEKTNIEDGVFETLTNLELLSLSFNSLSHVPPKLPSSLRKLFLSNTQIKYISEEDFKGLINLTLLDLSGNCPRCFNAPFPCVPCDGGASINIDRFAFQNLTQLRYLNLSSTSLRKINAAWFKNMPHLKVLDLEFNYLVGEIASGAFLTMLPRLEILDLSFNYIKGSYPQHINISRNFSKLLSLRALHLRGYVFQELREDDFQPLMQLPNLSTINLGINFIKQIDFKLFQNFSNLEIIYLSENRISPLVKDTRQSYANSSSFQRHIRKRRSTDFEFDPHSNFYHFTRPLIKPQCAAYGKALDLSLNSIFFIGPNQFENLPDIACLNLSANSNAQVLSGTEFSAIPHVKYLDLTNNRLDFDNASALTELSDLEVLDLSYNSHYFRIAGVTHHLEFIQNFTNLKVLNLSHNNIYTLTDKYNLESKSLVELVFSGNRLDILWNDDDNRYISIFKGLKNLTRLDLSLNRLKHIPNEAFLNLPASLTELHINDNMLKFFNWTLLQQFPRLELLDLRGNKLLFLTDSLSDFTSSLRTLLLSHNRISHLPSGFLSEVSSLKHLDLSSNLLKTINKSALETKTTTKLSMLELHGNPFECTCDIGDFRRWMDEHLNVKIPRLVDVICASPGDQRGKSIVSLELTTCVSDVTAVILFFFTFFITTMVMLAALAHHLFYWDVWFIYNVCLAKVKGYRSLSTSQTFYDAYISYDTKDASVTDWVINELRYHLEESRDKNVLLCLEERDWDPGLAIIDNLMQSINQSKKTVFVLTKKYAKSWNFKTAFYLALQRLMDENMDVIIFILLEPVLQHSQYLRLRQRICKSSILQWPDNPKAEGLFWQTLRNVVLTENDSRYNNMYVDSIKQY
Description: • 1. HEK-Blue hTLR8 cells (Invivogen) were cultured in DMEM medium (Hyclone) containing 10% FBS heat-inactivated fetal bovine serum (Corning). On the day of detection, the cell state was observed under a microscope, the cells were collected and resuspended, and the cell concentration was adjusted after counting, 50 μL per well, the total amount of cells was 2×10^4, and the cells were inoculated in a 96-well plate. • 2. After the cells adhered to the wall overnight, 50 μL of the test compound at different concentrations was added to the well plate, so that the final concentrations were 100 μM, 25 μM, 6.25 μM, 1.56 μM, 0.39 μM, 0.10 μM, 0.02 μM, 0.006 μM, 0 μM, or 100 μM, 33.3 μM, 11.11 μM, 3.70 μM, 1.23 μM, 0.41 μM, 0.14 μM, 0.05 μM, 0 μM, and the final concentration of DMSO was 1%. The compound was incubated with the cells in a 37° C., 5% CO2 incubator for 20 hours. • 3. After the incubation, observation was performed under microscope to determine the maximum signal well, the state of the cells with the highest and lowest concentrations of the compound, and whether the compound will crystalize at high concentration. 10 μL of cell culture supernatant was transferred to a new 96-well transparent plate, added with 90 μL of QUANTI-Blue (Invivogen) detection reagent to each well, incubated at 37° C. for 3 hours, and OD620 was read with a multifunctional microplate reader (BMG LABTECH). • 4. EC50 was calculated by fitting with Graphpad Prism software log(agonist) vs. Response—Variable slope, and Emax was the OD620 at which the activation effect of the test compound reached the maximum.

Chain of human TLR7 (Q9NYK1 27-1049): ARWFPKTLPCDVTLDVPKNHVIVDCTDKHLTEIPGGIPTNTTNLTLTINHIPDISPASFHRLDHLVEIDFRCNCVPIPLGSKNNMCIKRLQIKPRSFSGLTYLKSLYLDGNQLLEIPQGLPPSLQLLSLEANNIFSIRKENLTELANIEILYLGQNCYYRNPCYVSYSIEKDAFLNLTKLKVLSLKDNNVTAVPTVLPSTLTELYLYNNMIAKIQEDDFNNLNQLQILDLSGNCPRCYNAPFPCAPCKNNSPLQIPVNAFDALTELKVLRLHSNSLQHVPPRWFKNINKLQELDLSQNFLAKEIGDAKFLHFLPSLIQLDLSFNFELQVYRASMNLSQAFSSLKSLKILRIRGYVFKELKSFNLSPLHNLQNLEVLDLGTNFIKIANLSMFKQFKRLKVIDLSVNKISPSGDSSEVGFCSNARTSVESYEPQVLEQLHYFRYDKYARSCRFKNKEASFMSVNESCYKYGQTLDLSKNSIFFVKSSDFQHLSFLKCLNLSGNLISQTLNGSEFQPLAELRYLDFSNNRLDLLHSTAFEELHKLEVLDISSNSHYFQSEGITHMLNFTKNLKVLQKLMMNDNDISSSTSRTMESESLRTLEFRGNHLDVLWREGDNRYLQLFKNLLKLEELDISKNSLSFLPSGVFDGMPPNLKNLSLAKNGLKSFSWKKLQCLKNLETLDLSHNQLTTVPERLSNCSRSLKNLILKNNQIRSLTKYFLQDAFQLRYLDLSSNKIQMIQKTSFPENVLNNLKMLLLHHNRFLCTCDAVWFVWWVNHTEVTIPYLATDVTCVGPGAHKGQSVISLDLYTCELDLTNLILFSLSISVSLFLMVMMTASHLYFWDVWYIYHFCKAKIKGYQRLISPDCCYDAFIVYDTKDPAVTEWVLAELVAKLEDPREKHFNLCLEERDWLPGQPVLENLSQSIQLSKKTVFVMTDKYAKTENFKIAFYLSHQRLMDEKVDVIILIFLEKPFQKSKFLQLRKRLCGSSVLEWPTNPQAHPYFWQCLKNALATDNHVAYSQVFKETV

SMILES | activation effect on human TLR7 (in words) (human TLR7) | Emax (OD620) (human TLR7) | activation effect on human TLR8 (in words) (human TLR8) | Emax (OD620) (human TLR8)
CCCCc1nc2c(N)nc3ccsc3c2n1CC1CCN(C)CC1 [Compound 27, 2-butyl-1-[(1-methylhexahydropyridin-4-yl)methyl]thieno[3,2-b]imidazo[4,5-d]pyridine-4-amine] | strong activation effect | 1.59 OD620 | strong activation effect | 0.84 OD620
CCCCc1nc2c(N)nc3ccsc3c2n1CCCCN [Compound 2, 1-(4-aminobutyl)-2-butyl-1H-imidazo[4,5-d]thieno[3,2-b]pyridine-4-amine] | strong activation effect | 1.36 OD620 | strong activation effect | 1.37 OD620
CCCCc1nc2c(N)nc3cc(C4CCN(C)CC4)sc3c2[nH]1 [Compound 6, 2-butyl-7-(1-methylpiperidin-4-yl)-1H-imidazo[4,5-d]thieno[3,2-b]pyridine-4-amine] | strong activation effect | 1.08 OD620 | strong activation effect | 1.11 OD620
CCCCc1nc2c(N)nc3cc(C4=CCN(C)CC4)sc3c2[nH]1 [Compound 8, 2-butyl-7-(1-methyl-1,2,3,6-tetrahydropyridin-4-yl)-1H-imidazo[4,5-d]thieno[3,2-b]pyridine-4-amine] | strong activation effect | 0.56 OD620 | – | –
CCOCc1nc2c(N)nc3ccsc3c2n1CCCCN [Compound 5, 1-(4-aminobutyl)-2-(2-ethoxymethyl)-1H-imidazo[4,5-d]thieno[3,2-b]pyridine-4-amine] | strong activation effect | 1.46 OD620 | – | –
CCCCc1nc2c(N)nc3cc(C)sc3c2n1CC1CCN(CCOCCOCCOCCOCCOCCOCCOC)CC1 [Compound 16, 1-((1-(2,5,8,11,14,17,20-heptaoxadocosan-22-yl)piperidin-4-yl)methyl)-2-butyl-7-methyl-1H-imidazo[4,5-d]thieno[3,2-b]pyridine-4-amine] | strong activation effect | 2.18 OD620 | – | –
CCCCc1nc2c(N)nc3cc(C)sc3c2n1CC1CCNCC1 [Compound 3, 2-butyl-7-methyl-1-(piperidin-4-ylmethyl)-1H-imidazo[4,5-d]thieno[3,2-b]pyridine-4-amine] | strong activation effect | 1.43 OD620 | strong activation effect | 1.86 OD620
COCCc1nc2c(N)nc3ccsc3c2n1CC1CCN(C)CC1 [Compound 56, 2-(2-methoxyethyl)-1-[(1-methylhexahydropyridin-4-yl)methyl]thieno[3,2-b]imidazo[4,5-d]pyridine-4-amine] | strong activation effect | 1.41 OD620 | – | –
CCCCc1nc2c(N)nc3cc(C4CCNCC4)sc3c2n1CC1CCOCC1 [Compound 33, 2-butyl-7-(hexahydropyridin-4-yl)-1-(3,4,5,6-tetrahydro-2H-pyran-4-ylmethyl)thieno[3,2-b]imidazo[4,5-d]pyridine-4-amine] | strong activation effect | 1.46 OD620 | strong activation effect | 0.67 OD620
CCCCc1nc2c(N)nc3cc(C)sc3c2n1CCCCN [Compound 1, 1-(4-aminobutyl)-2-butyl-7-methyl-1H-imidazo[4,5-d]thieno[3,2-b]pyridine-4-amine] | strong activation effect | 1.36 OD620 | strong activation effect | 1.43 OD620
CCCCc1nc2c(N)nc3cc(C)sc3c2n1CC1CCN(C)CC1 [Compound 28, 2-butyl-7-methyl-1-((1-methylpiperidin-4-yl)methyl)-1H-imidazo[4,5-d]thieno[3,2-b]pyridine-4-amine] | strong activation effect | 1.39 OD620 | – | –
CCCCc1nc2c(N)nc3cc(C4CCN(C)CC4)sc3c2n1CC1CCN(C)CC1 [Compound 38, 2-butyl-7-(1-methylpiperidin-4-yl)-1-((1-methylpiperidin-4-yl)methyl)-1H-imidazo[4,5-d]thieno[3,2-b]pyridine-4-amine] | strong activation effect | 0.49 OD620 | – | –
